# According to patent US20020010128A1, “Treatment of hyperproliferative, inflammatory and related mucocutaneous disorders using inhibitors of mevalonate synthesis and metabolism” (priority 2000, published 2002):
# Key:
# Murine thymic T cells = experiment: Murine thymic T cell proliferation (ConA stimulation, MTT assay); format: cell-based; conditions: for effect of mevalonate on inhibition of T cell proliferation: presence of 1 mM mevalonate; for inhibition of T cell proliferation: murine thymic T cells, different concentrations
# Description: Murine thymic T cells were stimulated with Concanavalin A and incubated for 72 hr, and proliferation was then assessed by measuring viable cell number using the MTT assay (OD 570 nm proportional to viable cell number). Different concentrations of mevastatin and oxysterol alone (CP compounds; Panel A) or oxysterol combined with lanolin (Panel B) were added to the cells 1 hr following ConA treatment (FIG. 2).
# T cells were incubated with different concentrations of mevastatin (CP 115) alone or in the presence of 1 mM mevalonate (MA). The inhibition of T cell proliferation by mevastatin was prevented by addition of mevalonic acid, the product of the HMG-CoA reductase reaction (FIG. 3).
# Murine thymic T cells were incubated with different concentrations of 25-hydroxycholesterol (CP 105; Panel A) or an oxysterol combined with lanolin (C-010; Panel B) in the absence or presence of 1 mM mevalonate (MA).
# To further test this synergistic effect, T cells were incubated with different concentrations of mevastatin alone or in combination with 0.25 μg/ml 25-hydroxycholesterol (CP 105; FIG. 5, Panel A) or 10 μg/ml of an oxysterol combined with lanolin (C-010; FIG. 5, Panel B). The data was expressed as percent of control proliferation. CP 105 and C-010 inhibited T cell proliferation 14% and 28% at the indicated concentrations, respectively. Thus minimally effective concentrations of 25-hydroxycholesterol and C-0010-010 decreased the IC50 of mevastatin by a factor greater than 10-fold (FIG. 5). This experiment confirmed that the inhibition of T cell proliferation by mevastatin is advantageously potentiated by oxysterols.
# Murine thymic T cells were incubated with different concentrations of an inhibitor of geranylgeranyl transferase (GGTI).
# NFAT = experiment: NFAT-regulated reporter gene in transiently transfected Jurkat cells; format: cell-based, human; conditions: for NFAT activity induced by ionomycin and dominant active ras / NFAT activity stimulated by PMA and dominant active calcineurin: Jurkat cells
# Excerpt: The effects of lovastatin on NFAT activation and IL-2 gene expression were investigated in Jurkat T cells (human leukemia T cells). Lovastatin inhibited the expression of an NFAT-regulated reporter gene in transiently transfected Jurkat cells stimulated with ionomycin and PMA or with thapsigargin + PMA.
# NFAT is synergistically activated by the Ca^2+/calcineurin and PKC/ras/MAPK pathways. To gain further insight into the novel mechanism of action of lovastatin, dominant active forms of calcineurin and ras were expressed in Jurkat cells to bypass early signaling events mediated by ionomycin (i.e., Ca^2+) and PMA (i.e., PKC).
# [1] = tested on: RSV-driven control reporter gene; experiment: RSV-driven control reporter gene in Jurkat cells; format: cell-based, human
# Excerpt: (§1) The effects of lovastatin on NFAT activation and IL-2 gene expression were investigated in Jurkat T cells (human leukemia T cells).
# human IL-2 promoter = experiment: Human IL-2 promoter activation in Jurkat cells; format: cell-based
# Excerpt: as §1
# Asthma patients = experiment: Treatment of asthma patients with aerosolized lovastatin; format: in vivo, human; conditions: aerosolized form or nasal inhaler
# IL-2 = IL-2 secretion from stimulated Jurkat cells; format: cell-based, human
# Excerpt: (§2) Since NFAT plays a critical role in IL-2 gene transcription, the effects of lovastatin on IL-2 mRNA levels and IL-2 secretion from stimulated lymphoid cells were investigated.
# TNF-α = experiment: TNF-alpha secretion from stimulated Jurkat cells; format: cell-based, human; conditions: ionomycin and PMA-stimulated Jurkat cells
# [2] = tested on: oxazolone-induced contact hypersensitivity in mice; experiment: Oxazolone-induced contact hypersensitivity in mice; format: in vivo, mouse; conditions: topical sensitizer oxazolone instead of DNFB
# Description: Challenging mouse ears with haptens, such as 1-chloro-2,4-dinitrobenzene (DNCB), 2,4-dinitrofluorobenzene (DNFB), or oxazolone after a 5 day sensitization phase, induced severe swelling associated with an immune response that included a memory T cell infiltrate. Maximum swelling occurred between 24 and 48 hours after challenge. Thus, DNFB, DCNB and oxazolone were considered to induce delayed contact hypersensitivity.
# The protocol involved shaving the posterior portion of the backs of anesthetized 7-8 week old female Balb/c mice with electric clippers. DNCB in acetone:olive oil (4:1), DNFB in acetone alone or oxazolone (15% oxazolone in 97% acetone/3% DMSO) was applied to the shaved area in a volume of 50 μl (DNCB), 100 μl (DNFB), or 20 μl (oxazolone). The concentration of DNCB in the sensitizing solution ranged from 0.5% to 4% w/v or 0.1 to 0.5% for DNFB. Five days after sensitization, the thickness of both ears was measured with a spring-loaded micrometer and both surfaces of the ears were challenged with either 10 μl of DNCB in acetone:olive oil ranging in concentration from 0.25%-2.5% w/v, 10 μl of DNFB in acetone at 0.1%, 10 μl 2% oxazolone in 97% acetone/3% DMSO, or vehicle alone. Post challenge ear thickness measurements were taken at 8, 16, 24, 32, 48, 56 and 72 hours. […]
# (§3) The percent suppression for each formulation was determined at 48 hours post-challenge.
# [3] = tested on: RBL-2H3 mucosal mast cell line; experiment: 3H-serotonin release (degranulation) from RBL-2H3 mast cells; format: cell-based
# Excerpt: The RBL-2H3 mucosal mast cell line has been used extensively to study stimulus secretion coupling. Treatment with a calcium ionophore or antigenic crosslinking of the high affinity receptor for IgE on these cells leads to degranulation and the secretion of various proinflammatory mediators, including biogenic amines such as histamine and serotonin.
# IL-2 mRNA = IL-2 mRNA accumulation in stimulated Jurkat cells; format: cell-based, human; conditions: Jurkat cells stimulated with ionomycin and PMA
# Excerpt: as §2
# [4] = tested on: DNFB-induced contact hypersensitivity in mice; experiment: DNFB-induced contact hypersensitivity in mice (ear swelling); format: in vivo, mouse; conditions: 1% topical, applied 30 minutes or one hour after challenge, 48 hours post-challenge
# Description: The protocol involved shaving the posterior portion of the backs of anesthetized 7-8 week old female Balb/c mice with electric clippers. […] The concentration of DNCB in the sensitizing solution ranged from 0.5% to 4% w/v or 0.1 to 0.5% for DNFB. […] Post challenge ear thickness measurements were taken at 8, 16, 24, 32, 48, 56 and 72 hours. […] However, a swelling response of at least 50% above baseline was considered reasonable.
# as §3
# [5] = tested on: TPA-induced ear swelling in mice; experiment: TPA-induced ear swelling, mouse acute irritant dermatitis model; format: in vivo
# Description: Mevastatin was tested topically at 0.5% with several oxysterols known to downregulate HMG-CoA reductase expression, including 25-hydroxycholesterol, in the mouse acute irritant dermatitis model. TPA was applied topically to the ears of mice and the resultant swelling response was measured 24 hr later. Compounds or vehicle alone were topically applied to ears 1 and 6 hr following TPA treatment. The data was expressed as a percent inhibition of the swelling response in the presence of compounds as compared to ears treated with vehicle only.
# The phorbol ester 12-0-tetradecanoyl-13-phorbol acetate (TPA) is the active ingredient in […]. TPA induced skin inflammation peaked between 24 and 30 hours when the ear was the target and between 8 and 16 hours when the flank was the target. These two alternative targets allowed to determine both the short and the longer term activity of different compounds in suppressing TPA-induced inflammation. […]
# The model systems described in Example 9 were employed, using TPA challenge as a model for acute inflammation. […] The percent suppression for each formulation was determined as described in Example 9 at 30 hours post-challenge (for TPA). Results are reported as the percent suppression of inflammation compared to untreated controls, as measured by ear thickness.
structure (smiles),measurement,setting,value
C[C@H](CCCC(C)(C)O)[C@H]1CC[C@H]2[C@@H]3CC=C4C[C@@H](O)CC[C@]4(C)[C@H]3CC[C@]12C [25-hydroxycholesterol],inhibition at 0.25 µg/mL,"Murine thymic T cells; Mus musculus, T-cell, 0.25 μg/ml",14%
same,effect of mevalonate on inhibition of T cell proliferation,Murine thymic T cells,not prevented by mevalonic acid
COC(=O)[C@H](CC(C)C)NC(=O)c1ccc(NC[C@@H](N)CS)cc1-c1ccccc1 [GGTI-286],inhibition of T cell proliferation,Murine thymic T cells,Dose-dependent inhibition
CN(C)CCCn1cc(C2=C(c3c[nH]c4ccccc34)C(=O)NC2=O)c2ccccc21 [Gö6850],NFAT activity induced by ionomycin and dominant active ras,NFAT,inactive
same,NFAT activity stimulated by PMA and dominant active calcineurin,NFAT,inhibited
CC[C@H](C)C(=O)O[C@H]1C[C@@H](C)C=C2C=C[C@H](C)[C@H](CC[C@@H]3C[C@@H](O)CC(=O)O3)[C@H]21 [lovastatin],transcription from RSV-driven control reporter gene,[1],did not affect
same,activation of the human IL-2 promoter,human IL-2 promoter,inhibited activation
same,relief of lung constriction and inflammation in asthma patients,Asthma patients,more effective relief of lung constriction and inflammation
same,IC50,"IL-2; Jurkat cells stimulated with ionomycin and PMA, read-out: IC50, inhibition of IL-2 secretion",12 µM
same,effect of mevalonic acid on inhibition of IL-2 secretion,IL-2; addition of mevalonic acid,not reversed
same,TNF-α secretion,TNF-α,inhibit
same,NFAT activity induced by ionomycin and dominant active ras,NFAT,strongly inhibited
same,NFAT activity stimulated by PMA and dominant active calcineurin,NFAT,relatively insensitive
same,expression of NFAT-regulated reporter gene,NFAT; Jurkat cells stimulated with ionomycin and PMA or thapsigargin + PMA,inhibited
same,effect of mevalonic acid on inhibition of NFAT reporter activity,NFAT; preincubation of Jurkat cells with mevalonic acid,did not reverse
same,IC50,"NFAT; stated as similar to the IL-2 secretion IC50, read-out: IC50, inhibition of NFAT-dependent reporter activity",~12 µM
same,suppression of oxazolone-induced contact hypersensitivity,[2],dose-dependent
same,release of 3H-serotonin,"[3]; RBL-2H3 cells stimulated with antigen or calcium ionophore, dose-dependent",inhibited
same,effect of mevalonic acid on inhibition of 3H-serotonin release,[3]; co-incubation with mevalonic acid,not reversed
same,IL-2 mRNA accumulation,IL-2 mRNA,inhibited
same,suppression of DNFB-induced delayed contact hypersensitivity (ear swelling),[4],reduced delayed contact hypersensitivity
CC[C@H](C)C(=O)O[C@H]1CCC=C2C=C[C@H](C)[C@H](CC[C@@H]3C[C@@H](O)CC(=O)O3)[C@H]21 [mevastatin],inhibition of T cell proliferation,Murine thymic T cells,potently inhibit
same,effect of mevalonate on inhibition of T cell proliferation,Murine thymic T cells,reversed by mevalonate
same,"percent suppression of TPA-induced acute inflammation, measured by ear thickness","[5]; 0.5% in ethanol/cyclohexane (1:1), applied 30 minutes or one hour after challenge, 30 hours post-challenge",58%
same,inhibition of TPA-induced ear swelling,"[5]; 0.5% topical, applied 1 and 6 hr after TPA, swelling measured 24 hr later",significantly inhibited
